Read-outs that look alike come from different tables or passages of the source.
Experiments:
ATF4 = ATF4 expression inhibition assay (ATF4 5'UTR luciferase reporter, Tg-stressed HEK293T cells); type: cell-based, human; details: for inhibition at 0.1 µM: read-out: % ATF4 inhibition at 100 nM; for inhibition at 1 µM: read-out: % ATF4 inhibition at 1 μM; for IC50: read-out: ATF4 inhbition IC50
Method: The ATF4 reporter was prepared by fusing the human full length 5′UTR of ATF4 (NCBI Accession No. BC022088.2) upstream of the firefly luciferase coding sequence lacking the initiator methionine. The fused sequence was cloned into pLenti-EF1a-C-Myc-DDK-IRES-Puro cloning vector (Origen #PS100085) using standard methods. Virus production was carried out by using Lenti-X™ Packaging Single Shots Protocol (Clonetech #631276). Viral particles were used to transduce HEK293T cells (ATCC #CRL-3216, ATCC Manassas, Va.), which were subsequently selected with puromycin to generate stable cell line. Cells were maintained at 37° C. and 5% CO2 in DMEM-F12 (Hyclone #SH30023.02) supplemented with 10% heat-inactivated fetal bovine serum (Gibco #16000-044), 2 mM L-glutamine (Gibco #25030-081), 100 U/ml penicillin, and 100 μg/ml streptomycin (Gibco #15140-122).
HEK293T cells carrying the ATF4 luciferase reporter were plated on 96-well plates (Nunc) at 10,000 cells per well. Cells were treated two days after seeding with 100 nM thapsigargin (Tg) (Sigma-Aldrich #T9033) in the presence of 100 nM or 1 μM. For the assessment of the half-maximal inhibitory concentration (IC50) for selected compounds, dose-response assays were performed. Compounds were serially diluted using DMSO ranging from 0.1 nM to 1 μM. Cells without treatment or cells treated with Tg alone were used as controls. Assay plates containing cells were incubated for 3 hours at 37° C.
Luciferase reactions were performed using Luciferase Assay System (Promega #E1501) as specified by the manufacturer. Luminescence was read with an integration time of 1 s and a gain of 110 using a Cytation-5 multi-mode microplate reader (BioTek). Relative luminescence units were normalized to Tg treatment (0% inhibition) and untreated cells (100% inhibition) and the percentage of ATF4 inhibition was calculated.
Percentages of ATF4 inhibition after induction with Tg in the presence of 100 nM or 1 μM of certain test compounds are shown in Table 2. Also shown in Table 2 is the calculated IC50 for certain test compounds. […] Accordingly, inhibition of ATF4 expression as a result of the test compound indicates suppression of the ISR pathway.

[1] = tested on: Chinese hamster ovary (CHO) cells; assay: Protein translation assay (puromycin labelling, CHO cells); type: cell-based; details: media alone = 100%; for activity at 1 µM: Cricetulus griseus, CHO
Method: Chinese hamster ovary (CHO) cells were maintained at 37° C. and 5% CO2 in Dulbecco's Modified Eagle's Media (DMEM) supplemented with 10% fetal bovine serum, 2 mM L-glutamine, 100 U/ml penicillin, and 100 μg/ml streptomycin. After reaching 80% of confluence, cells were detached and seeded on 6 well plates in complete media, allowed to recover overnight and treated for 2 hours with 1 μM of the test compound (to assess protein synthesis levels in unstressed condition), or for 1 hour with 100 nM or 1 μM of the test compound and then co-treated with 300 nM Tg and 100 nM or 1 μM of the test compound (to assess the recovery of protein synthesis in a stressed condition). Cells treated with Tg alone were used as controls.
After the 2 hours treatments, media were replaced by adding 10 μg/ml puromycin (Sigma Aldrich #P8833) in complete media for 30 min. Media were removed and cells were lysed with SDS-PAGE lysis buffer. Lysates were transferred to 1.5 ml tubes and sonicated for 3 min and total protein amount were quantified using BCA Protein Assay Kit (Pierce). Equal amount of protein (30 μg) was loaded on SDS-PAGE gels. Proteins were transferred onto 0.2 μm PVDF membranes (BioRad) and probed with primary antibodies diluted in Tris-buffered saline supplemented with 0.1% Tween 20 (Merck #S6996184 505) and 3% bovine serum albumin (Rockland #BSA-50).
Puromycin (12D10) (Merck #MABE343) and β-actin (Sigma Aldrich #A5441) antibodies were used as primary antibody. A HRP-conjugated secondary antibody (Rockland) was employed to detect immune-reactive bands using enhanced chemiluminescence (ECL Western Blotting Substrate, Pierce). Quantification of protein bands was done by densitometry using ImageJ software.
Percent increase of protein synthesis in unstressed cells (without Tg treatment) in the presence of media alone or certain test compounds is shown in Table 3 The percentage levels were normalized to the media alone condition, which correspond to 100% protein synthesis.
Percent recovery of protein synthesis in stressed cells (with Tg treatment) due to the test compounds at 100 nM or 1 μM is also shown in Table 3. The levels were normalized to the media alone and to Tg alone conditions, which correspond to 100% and 0% respectively.

[2] = 2 h, unstressed CHO cells, 1 μM, 2 hours, read-out: % Protein synthesis in unstressed cells (1 μM test compound)
[3] = CHO cells stressed with 300 nM Tg, 1 μM compound, Tg alone = 0%, read-out: % Recovery of protein expression (1 μM test compound)
[4] = 100 nM thapsigargin, 3 hours, HEK293T ATF4 luciferase reporter
[5] = Homo sapiens, HEK-293T, 3 h, 100 nM test compound, 100 nM thapsigargin, 3 hours, HEK293T ATF4 luciferase reporter
[6] = Homo sapiens, HEK-293T, 3 h, 1 μM test compound, 100 nM thapsigargin, 3 hours, HEK293T ATF4 luciferase reporter
[7] = unstressed CHO cells, 1 μM, 2 hours
[8] = 100 nM test compound, 100 nM thapsigargin, 3 hours, HEK293T ATF4 luciferase reporter
[9] = 1 μM test compound, 100 nM thapsigargin, 3 hours, HEK293T ATF4 luciferase reporter
[10] = Homo sapiens, HEK-293T, 3 h, 100 nM thapsigargin, 3 hours, HEK293T ATF4 luciferase reporter

Structure (SMILES)	inhibition at 0.1 µM (ATF4; Homo sapiens, HEK-293T, 3 h)	inhibition at 1 µM (ATF4; Homo sapiens, HEK-293T, 3 h)	IC50 (ATF4; Homo sapiens, HEK-293T, 3 h)	activity at 1 µM [1, 2]	activity at 1 µM [1, 3]	IC50 (ATF4; [4])	inhibition at 0.1 µM (ATF4; [5])	inhibition at 1 µM (ATF4; [6])	% Protein synthesis in unstressed cells (1 μM test compound) [1, 7]	% ATF4 inhibition at 100 nM (ATF4; [8])	% ATF4 inhibition at 1 μM (ATF4; [9])	% Recovery of protein expression (1 μM test compound) ([1]; CHO cells stressed with 300 nM Tg, 1 μM compound, Tg alone = 0%)	IC50 (ATF4; [10])
O=C(COc1ccc(Cl)c(F)c1)NN1CCN(C(=O)COc2ccc(Cl)c(F)c2)CC1 [Compound 30, 2-(4-chloro-3-fluorophenoxy)-N-(4-(2-(4-chloro-3-fluorophenoxy)acetyl)piperazin-1-yl)acetamide]	29.5%	97.1%	0.187 µM	49.3%	31.7%								
O=C(COc1ccc(Cl)c(F)c1)NC1CCN(NC(=O)C2CNc3cc(Cl)ccc3O2)CC1 (stereo not shown) [Compound 31, 6-chloro-N-(4-(2-(4-chloro-3-fluorophenoxy)acetamido)piperidin-1-yl)-3,4-dihydro-2H-benzo[b][1,4]oxazine-2-carboxamide]						0.00416 µM	94.8%	92.7%	155.4%				
O=C(COc1ccc(Cl)c(F)c1)NN1CCC(NC(=O)C2CNc3cc(Cl)ccc3O2)CC1 (stereo not shown) [Compound 32]						0.012 µM			115.7%	85.7%	92.4%	74.8%	
O=C(NN1CCN(CCCOc2ccc(Cl)c(F)c2)CC1)C1CNc2cc(Cl)ccc2O1 (stereo not shown) [Compound 44, 6-chloro-N-(4-(3-(4-chloro-3-fluorophenoxy)propyl)piperazin-1-yl)-3,4-dihydro-2H-benzo[b][1,4]oxazine-2-carboxamide]	51.5%	82%	0.151 µM	146%	120%								
O=C(COc1ccc(Cl)cc1)NC1CCN(NC(=O)COc2ccc(Cl)cc2)CC1 [Compound 45, N,N′-(piperidine-1,4-diyl)bis(2-(4-chlorophenoxy)acetamide)]	92.7%	92.4%	0.0026 µM	114%	82.3%								
O=C(COc1ccc(Cl)c(F)c1)NC1CCN(NC(=O)[C@H]2CNc3cc(Cl)ccc3O2)CC1 [Compound 46, (R)-6-chloro-N-(4-(2-(4-chloro-3-fluorophenoxy)acetamido)piperidin-1-yl)-3,4-dihydro-2H-benzo[b][1,4]oxazine-2-carboxamide]				114%	63.3%		100%	99.3%					0.0036 µM
O=C(COc1ccc(Cl)c(F)c1)NC1CCN(NC(=O)[C@@H]2CNc3cc(Cl)ccc3O2)CC1 [Compound 47, (S)-6-chloro-N-(4-(2-(4-chloro-3-fluorophenoxy)acetamido)piperidin-1-yl)-3,4-dihydro-2H-benzo[b][1,4]oxazine-2-carboxamide]						0.00198 µM			89.4%	98.2%	99.0%		
O=C(NN1CCN(C[C@@H](O)COc2ccc(Cl)c(F)c2)CC1)c1cc2cc(Cl)ccc2o1 [Compound 48, (R)-5-chloro-N-(4-(3-(4-chloro-3-fluorophenoxy)-2-hydroxypropyl)piperazin-1-yl)benzofuran-2-carboxamide]				85.3%	76.2%		96.5%	97.4%					0.00336 µM
O=C(NN1CCN(C[C@H](O)COc2ccc(Cl)c(F)c2)CC1)c1cc2cc(Cl)ccc2o1 [Compound 49, (S)-5-chloro-N-(4-(3-(4-chloro-3-fluorophenoxy)-2-hydroxypropyl)piperazin-1-yl)benzofuran-2-carboxamide]				82.3%	70.7%		55.4%	100%					0.0697 µM
O=C(COc1ccc(Cl)c(F)c1)NN1CCC(NC[C@H](O)COc2ccc(Cl)c(F)c2)CC1 [Compound 53, (S)-2-(4-chloro-3-fluorophenoxy)-N-(4-((3-(4-chloro-3-fluorophenoxy)-2-hydroxypropyl)amino)piperidin-1-yl)acetamide]				83.7%	46.2%		36.1%	69.8%					0.268 µM
O=C(NN1CCC(NC[C@@H](O)COc2ccc(Cl)c(F)c2)CC1)c1cc2cc(Cl)ccc2o1 [Compound 54]	87.2%	97.2%	0.0016 µM	99.7%	69.9%								
O=C(NN1CCC(NC[C@H](O)COc2ccc(Cl)c(F)c2)CC1)c1cc2cc(Cl)ccc2o1 [Compound 55, (S)-5-chloro-N-(4-((3-(4-chloro-3-fluorophenoxy)-2-hydroxypropyl)amino)piperidin-1-yl)benzofuran-2-carboxamide]	58.1%	80.5%	0.102 µM	110%	49.6%								
O=C(NN1CCC(NC[C@@H](O)COc2ccc(Cl)c(F)c2)CC1)c1ccc2cc(Cl)ccc2n1 [Compound 56, (R)-6-chloro-N-(4-((3-(4-chloro-3-fluorophenoxy)-2-hydroxypropyl)amino)piperidin-1-yl)quinoline-2-carboxamide]				155%	46.1%		63.4%	75.6%					0.0717 µM
O=C(NN1CCC(NC[C@H](O)COc2ccc(Cl)c(F)c2)CC1)c1ccc2cc(Cl)ccc2n1 [Compound 57, (S)-6-chloro-N-(4-((3-(4-chloro-3-fluorophenoxy)-2-hydroxypropyl)amino)piperidin-1-yl)quinoline-2-carboxamide]				139%	69.6%		25.9%	39.8%					> 10 µM
O=C(NN1CCN(C[C@H](O)COc2ccc(Cl)c(F)c2)CC1)c1ccc2cc(Cl)ccc2n1 [Compound 59, (S)-6-chloro-N-(4-(3-(4-chloro-3-fluorophenoxy)-2-hydroxypropyl)piperazin-1-yl)quinoline-2-carboxamide]				180%	98.7%		38.8%	66%					0.57 µM

Reference: patent US11166942B2 (PRAXIS BIOTECH LLC, priority 2018, dated 2021)
